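Method: 48-hour compound exposure of cells in 96-well plates, five concentrations, linear interpolation of endpoints. Here, GI50 denotes the concentration required for 50% inhibition of growth.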 Active and inactive are the calls of the source. Cut-off read from the data, not from the text of the source: active = GI50 up to about 1.1 µM and inactive = higher.
Tests used:
Assay in all cases: DTP human tumour cell line panel, 48 h
PC-3 = system: PC-3
IGROV-1 = system: IGROV-1
CAKI-1 = system: CAKI-1
UACC-62 = system: UACC-62
T47D = system: T47D
MDA-MB-231 = system: MDA-MB-231
DU-145 = system: DU-145
HOP-62 = system: HOP-62
KM12 = system: KM12
HL-60 = system: HL-60
COLO 205 = system: COLO 205
SW-620 = system: SW-620
786-0 = system: 786-0
MCF7 = system: MCF7
SK-MEL-5 = system: SK-MEL-5
HT-29 = system: HT-29
K562 = system: K562
M14 = system: M14
TK-10 = system: TK-10
MOLT-4 = system: MOLT-4
UACC-257 = system: UACC-257
NCI-H23 = system: NCI-H23
SK-MEL-28 = system: SK-MEL-28
SF-295 = system: SF-295
MDA-N = system: MDA-N
Malme-3M = system: Malme-3M
EKVX = system: EKVX
HCT-15 = system: HCT-15
RXF 393 = system: RXF 393
SK-OV-3 = system: SK-OV-3
SN12C = system: SN12C
RPMI-8226 = system: RPMI-8226
OVCAR-8 = system: OVCAR-8
SNB-75 = system: SNB-75
SR = system: SR
A549 = system: A549
CCRF-CEM = system: CCRF-CEM
HCC 2998 = system: HCC 2998
OVCAR-5 = system: OVCAR-5
HCT-116 = system: HCT-116
Hs-578T = system: Hs-578T
UO-31 = system: UO-31
NCI/ADR-RES = system: NCI/ADR-RES
HOP-92 = system: HOP-92
SNB-19 = system: SNB-19
A498 = system: A498
SF-268 = system: SF-268
OVCAR-4 = system: OVCAR-4
NCI-H460 = system: NCI-H460
ACHN = system: ACHN
U-251 = system: U-251

Cc1ccc(S(=O)(=O)OC2C(O)C(O)OC2C(c2cc(O)c3c(c2O)C(=O)c2ccccc2C3=O)c2cc(O)c3c(c2O)C(=O)c2ccccc2C3=O)cc1 (stereo unspecified)
GI50 (PC-3): 2.9 µM (inactive) | GI50 (IGROV-1): 7.1 µM (inactive) | GI50 (CAKI-1): 2.74 µM (inactive) | GI50 (UACC-62): 4.38 µM (inactive) | GI50 (T47D): 5.07 µM (inactive) | GI50 (MDA-MB-231): 4.06 µM (inactive) | GI50 (DU-145): 5.58 µM (inactive) | GI50 (HOP-62): 4.11 µM (inactive) | GI50 (KM12): 3.42 µM (inactive) | GI50 (HL-60): 1.87 µM (inactive) | GI50 (COLO 205): 2.2 µM (inactive) | GI50 (SW-620): 4.65 µM (inactive) | GI50 (786-0): 4.94 µM (inactive) | GI50 (MCF7): 3.44 µM (inactive) | GI50 (SK-MEL-5): 3.43 µM (inactive) | GI50 (HT-29): 5.24 µM (inactive) | GI50 (K562): 3.24 µM (inactive) | GI50 (M14): 2.74 µM (inactive) | GI50 (TK-10): 8.71 µM (inactive) | GI50 (MOLT-4): 3.31 µM (inactive) | GI50 (UACC-257): 3.01 µM (inactive) | GI50 (NCI-H23): 2.99 µM (inactive) | GI50 (SK-MEL-28): 7.26 µM (inactive) | GI50 (SF-295): 3.76 µM (inactive) | GI50 (MDA-N): 3.61 µM (inactive) | GI50 (Malme-3M): 1.28 µM (inactive) | GI50 (EKVX): 3.33 µM (inactive) | GI50 (HCT-15): 3.4 µM | GI50 (RXF 393): 5.36 µM (inactive) | GI50 (SK-OV-3): 6.25 µM (inactive) | GI50 (SN12C): 3.65 µM (inactive) | GI50 (RPMI-8226): 2.64 µM (inactive) | GI50 (OVCAR-8): 3.44 µM (inactive) | GI50 (SNB-75): 4.09 µM (inactive) | GI50 (SR): 3.08 µM (inactive) | GI50 (A549): 3.54 µM (inactive) | GI50 (CCRF-CEM): 3.89 µM (inactive) | GI50 (HCC 2998): 4.09 µM (inactive)

COc1cc(/C=C/c2ccc(O)c(OC)c2)cc(OC)c1
GI50 (PC-3): 10.3 µM (inactive) | GI50 (IGROV-1): 39.9 µM (inactive) | GI50 (CAKI-1): 27.1 µM (inactive) | GI50 (OVCAR-5): 31.6 µM (inactive) | GI50 (HCT-116): 27.5 µM (inactive) | GI50 (T47D): 33.9 µM (inactive) | GI50 (Hs-578T): 14.2 µM (inactive) | GI50 (UO-31): 20 µM (inactive) | GI50 (DU-145): 23.1 µM (inactive) | GI50 (NCI/ADR-RES): 31 µM (inactive) | GI50 (HOP-92): 12.3 µM (inactive) | GI50 (HOP-62): 50.6 µM (inactive) | GI50 (KM12): 20.8 µM (inactive) | GI50 (HL-60): 12.6 µM (inactive) | GI50 (COLO 205): > 100 µM (inactive) | GI50 (SW-620): 30.1 µM (inactive) | GI50 (786-0): 45.5 µM (inactive) | GI50 (MCF7): 26.2 µM (inactive) | GI50 (SK-MEL-5): 23.9 µM (inactive) | GI50 (HT-29): 30.8 µM (inactive) | GI50 (K562): 26.4 µM (inactive) | GI50 (M14): 21 µM (inactive) | GI50 (TK-10): 20.2 µM (inactive) | GI50 (SNB-19): 36.4 µM (inactive) | GI50 (MOLT-4): 20.9 µM (inactive) | GI50 (A498): 21.6 µM (inactive) | GI50 (SF-268): 34.4 µM (inactive) | GI50 (UACC-257): 24.8 µM (inactive) | GI50 (NCI-H23): 26.5 µM (inactive) | GI50 (SK-MEL-28): 33.1 µM (inactive) | GI50 (SF-295): 17.7 µM (inactive) | GI50 (MDA-N): 17.4 µM (inactive) | GI50 (Malme-3M): 30.7 µM (inactive) | GI50 (EKVX): 28.2 µM (inactive) | GI50 (HCT-15): 14.3 µM | GI50 (RXF 393): 22.6 µM (inactive) | GI50 (OVCAR-4): 41.8 µM (inactive) | GI50 (SK-OV-3): 26.9 µM (inactive) | GI50 (NCI-H460): 19 µM (inactive) | GI50 (RPMI-8226): 30.3 µM (inactive) | GI50 (OVCAR-8): 37.5 µM (inactive) | GI50 (SNB-75): 23.1 µM (inactive) | GI50 (SR): 25.8 µM (inactive) | GI50 (ACHN): 22.2 µM (inactive) | GI50 (A549): 25.6 µM (inactive) | GI50 (U-251): 19.5 µM (inactive) | GI50 (CCRF-CEM): 14.4 µM (inactive) | GI50 (HCC 2998): 49.7 µM (inactive)

— ChEMBL document CHEMBL1201862, “PubChem BioAssay data set” (2004)
